Target: T1, IGF-1R (Homo sapiens, UniProt P08069)
T1 construct: expressed in transfected cells
Assay: Example B-2: IGF-1R Assay (PathHunter cell lines, EC80 agonist challenge, chemiluminescent detection)
Type: cell-based
Conditions: PathHunter cells, compound 60 minutes at 37° C., EC80 agonist 3 hours; read-out: IC50, Biological Activity against IGF-1R (Table B2)
Method in brief: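 Read-out is PathHunter chemiluminescence, developed for 1 h at room temperature after a 3 h room-temperature EC80 agonist challenge that followed 60 min compound pre-treatment at 37° C (1% vehicle). IC50 comes from % inhibition normalized to EC80 and vehicle controls.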

T1 sequence (P08069 31-1367): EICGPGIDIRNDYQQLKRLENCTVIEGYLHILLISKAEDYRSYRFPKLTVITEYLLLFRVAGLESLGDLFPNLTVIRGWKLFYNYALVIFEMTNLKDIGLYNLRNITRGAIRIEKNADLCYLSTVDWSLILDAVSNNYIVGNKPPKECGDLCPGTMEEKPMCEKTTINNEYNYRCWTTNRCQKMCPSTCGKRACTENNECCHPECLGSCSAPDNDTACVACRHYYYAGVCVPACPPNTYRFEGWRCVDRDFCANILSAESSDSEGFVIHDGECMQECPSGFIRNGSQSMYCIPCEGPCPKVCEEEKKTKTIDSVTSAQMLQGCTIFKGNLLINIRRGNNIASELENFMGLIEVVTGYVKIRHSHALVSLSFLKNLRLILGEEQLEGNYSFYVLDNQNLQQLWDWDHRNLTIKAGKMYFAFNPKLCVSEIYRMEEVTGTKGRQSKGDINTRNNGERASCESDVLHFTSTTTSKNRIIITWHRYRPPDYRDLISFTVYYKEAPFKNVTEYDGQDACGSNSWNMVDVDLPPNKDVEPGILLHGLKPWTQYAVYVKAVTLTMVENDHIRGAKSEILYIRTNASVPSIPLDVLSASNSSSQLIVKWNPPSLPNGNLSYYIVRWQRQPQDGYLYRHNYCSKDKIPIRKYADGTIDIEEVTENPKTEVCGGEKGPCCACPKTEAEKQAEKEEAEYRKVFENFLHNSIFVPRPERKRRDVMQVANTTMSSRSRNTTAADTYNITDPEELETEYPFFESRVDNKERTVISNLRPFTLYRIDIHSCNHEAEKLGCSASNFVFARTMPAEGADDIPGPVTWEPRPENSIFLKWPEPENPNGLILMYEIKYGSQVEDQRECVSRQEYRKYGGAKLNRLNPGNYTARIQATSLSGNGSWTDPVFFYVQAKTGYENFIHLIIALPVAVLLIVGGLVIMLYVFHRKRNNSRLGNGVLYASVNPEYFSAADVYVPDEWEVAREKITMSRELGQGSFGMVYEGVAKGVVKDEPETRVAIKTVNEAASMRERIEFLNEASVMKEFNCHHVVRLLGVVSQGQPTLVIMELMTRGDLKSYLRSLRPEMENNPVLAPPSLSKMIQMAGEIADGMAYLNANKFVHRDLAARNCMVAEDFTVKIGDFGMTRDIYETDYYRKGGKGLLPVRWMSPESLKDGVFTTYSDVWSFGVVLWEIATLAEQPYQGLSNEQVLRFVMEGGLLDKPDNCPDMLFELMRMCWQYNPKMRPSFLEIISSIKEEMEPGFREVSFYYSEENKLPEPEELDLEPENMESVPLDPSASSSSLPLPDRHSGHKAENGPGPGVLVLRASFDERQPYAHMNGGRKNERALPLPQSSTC

SMILES: CN(C)CC(=O)Nc1cc(N2C(=O)N(Cc3ccnc(N[C@H]4[C@@H]5COC[C@@H]54)c3)C(C)(C)C2=O)ccc1OC(F)(F)F [Compound 281, N-(5-(3-((2-(((1R,5S,6r)-3-oxabicyclo[3.1.0]hexan-6-yl)amino)pyridin-4-yl)methyl)-4,4-dimethyl-2,5-dioxoimidazolidin-1-yl)-2-(trifluoromethoxy)phenyl)-2-(dimethylamino)acetamide]
- IC50: ≤ 0.5 µM

SMILES: CN(C)CCOc1cc(N2C(=O)N(Cc3ccnc(N[C@H]4[C@@H]5COC[C@@H]54)c3)C(C)(C)C2=O)ccc1OC(F)(F)F [Compound 282, 1-((2-(((1R,5S,6r)-3-oxabicyclo[3.1.0]hexan-6-yl)amino)pyridin-4-yl)methyl)-3-(3-(2-(dimethylamino)ethoxy)-4-(trifluoromethoxy)phenyl)-5,5-dimethylimidazolidine-2,4-dione]
- IC50: ≤ 0.5 µM

SMILES: CC1(C)C(=O)N(c2ccc(OC(F)(F)F)c(NS(C)(=O)=O)c2)C(=O)N1Cc1ccnc2c1CC(=O)N2 [Compound 283, N-(5-(4,4-dimethyl-2,5-dioxo-3-((2-oxo-2,3-dihydro-1H-pyrrolo[2,3-b]pyridin-4-yl)methyl)imidazolidin-1-yl)-2-(trifluoromethoxy)phenyl) methanesulfonamide]
- IC50: > 10 µM

SMILES: CN(C)CCOc1cc(N2C(=O)N(Cc3ccnc4c3CC(=O)N4)C(C)(C)C2=O)ccc1OC(F)(F)F [Compound 284, 3-(3-(2-(dimethylamino)ethoxy)-4-(trifluoromethoxy)phenyl)-5,5-dimethyl-1-((2-oxo-2,3-dihydro-1H-pyrrolo[2,3-b]pyridin-4-yl)methyl)imidazolidine-2,4-dione]
- IC50: 0.5 to 2 µM

SMILES: CC1(C)C(=O)N(c2ccc(OC(F)(F)F)cc2)C(=O)N1Cc1ccnc2c1CC(=O)N2 [Compound 285, 5,5-dimethyl-1-((2-oxo-2,3-dihydro-1H-pyrrolo[2,3-b]pyridin-4-yl)methyl)-3-(4-(trifluoromethoxy)phenyl) imidazolidine-2,4-dione]
- IC50: 0.5 to 2 µM

SMILES: CC1(C)C(=O)N(c2ccc(OC(F)(F)F)c(F)c2)C(=O)N1Cc1ccnc2c1CC(=O)N2 [Compound 286, 3-(3-fluoro-4-(trifluoromethoxy)phenyl)-5,5-dimethyl-1-((2-oxo-2,3-dihydro-1H-pyrrolo[2,3-b]pyridin-4-yl)methyl)imidazolidine-2,4-dione]
- IC50: 2 to 10 µM

SMILES: CC1(C)C(=O)N(c2ccc(OC(F)(F)F)c(Cl)c2)C(=O)N1Cc1ccnc2c1CC(=O)N2 [Compound 287, 3-(3-chloro-4-(trifluoromethoxy)phenyl)-5,5-dimethyl-1-((2-oxo-2,3-dihydro-1H-pyrrolo[2,3-b]pyridin-4-yl)methyl)imidazolidine-2,4-dione]
- IC50: 2 to 10 µM

SMILES: CC1(C)C(=O)N(c2ccc(OC(F)(F)F)c(C#N)c2)C(=O)N1Cc1ccnc2c1CC(=O)N2 [Compound 288, 5-(4,4-dimethyl-2,5-dioxo-3-((2-oxo-2,3-dihydro-1H-pyrrolo[2,3-b]pyridin-4-yl)methyl)imidazolidin-1-yl)-2-(trifluoromethoxy)benzonitrile]
- IC50: > 10 µM

SMILES: CC1(C)C(=O)N(c2ccc(S(=O)(=O)C(F)(F)F)cc2)C(=O)N1Cc1ccnc(N[C@H]2CCOC2)c1 [Compound 320, (S)-5,5-dimethyl-1-((2-((tetrahydrofuran-3-yl)amino)pyridin-4-yl)methyl)-3-(4-((trifluoromethyl)sulfonyl)phenyl) imidazolidine-2,4-dione]
- IC50: ≤ 0.5 µM

SMILES: C[C@@H](CC#N)Nc1cc(CN2C(=O)N(c3ccc(S(=O)(=O)C(F)(F)F)cc3)C(=O)C2(C)C)ccn1 [Compound 321, (S)-3-((4-((5,5-dimethyl-2,4-dioxo-3-(4-((trifluoromethyl)sulfonyl)phenyl)imidazolidin-1-yl)methyl)pyridin-2-yl)amino)butanenitrile]
- IC50: 0.5 to 2 µM

SMILES: CC1(C)C(=O)N(c2ccc(S(=O)(=O)C(F)(F)F)cc2)C(=O)N1Cc1ccnc(NC2CCN(S(C)(=O)=O)CC2)c1 [Compound 322, 5,5-dimethyl-1-((2-((1-(methylsulfonyl)piperidin-4-yl)amino)pyridin-4-yl)methyl)-3-(4-((trifluoromethyl)sulfonyl)phenyl) imidazolidine-2,4-dione]
- IC50: 0.5 to 2 µM

SMILES: CN1C[C@@H](Nc2cc(CN3C(=O)N(c4ccc(S(=O)(=O)C(F)(F)F)cc4)C(=O)C3(C)C)ccn2)CC1=O [Compound 323, (S)-5,5-dimethyl-1-((2-((1-methyl-5-oxopyrrolidin-3-yl)amino)pyridin-4-yl)methyl)-3-(4-((trifluoromethyl)sulfonyl)phenyl) imidazolidine-2,4-dione]
- IC50: 2 to 10 µM

SMILES: CN1C[C@H](Nc2cc(CN3C(=O)N(c4ccc(S(=O)(=O)C(F)(F)F)cc4)C(=O)C3(C)C)ccn2)CC1=O [Compound 324, (R)-5,5-dimethyl-1-((2-((1-methyl-5-oxopyrrolidin-3-yl)amino)pyridin-4-yl)methyl)-3-(4-((trifluoromethyl)sulfonyl)phenyl) imidazolidine-2,4-dione]
- IC50: 0.5 to 2 µM

SMILES: CC1(C)C(=O)N(c2ccc(S(=O)(=O)C(F)(F)F)cc2)C(=O)N1Cc1ccnc(NC2CCc3cn[nH]c3C2)c1 (centres unmarked) [Compound 325, 5,5-dimethyl-1-((2-((4,5,6,7-tetrahydro-1H-indazol-6-yl)amino)pyridin-4-yl)methyl)-3-(4-((trifluoromethyl)sulfonyl)phenyl) imidazolidine-2,4-dione]
- IC50: ≤ 0.5 µM

SMILES: CN1CCC(Nc2cc(CN3C(=O)N(c4ccc(S(=O)(=O)C(F)(F)F)cc4)C(=O)C3(C)C)ccn2)CC1=O (centres unmarked) [Compound 326, 5,5-dimethyl-1-((2-((1-methyl-2-oxopiperidin-4-yl)amino)pyridin-4-yl)methyl)-3-(4-((trifluoromethyl)sulfonyl)phenyl) imidazolidine-2,4-dione]
- IC50: 2 to 10 µM

SMILES: CC1(C)C(=O)N(c2ccc(S(=O)(=O)C(F)(F)F)cc2)C(=O)N1Cc1ccnc(NC2CS(=O)(=O)C2)c1 [Compound 327, 1-((2-((1,1-dioxidothietan-3-yl)amino)pyridin-4-yl)methyl)-5,5-dimethyl-3-(4-((trifluoromethyl)sulfonyl)phenyl) imidazolidine-2,4-dione]
- IC50: 2 to 10 µM

SMILES: CN1CCCC(Nc2cc(CN3C(=O)N(c4ccc(S(=O)(=O)C(F)(F)F)cc4)C(=O)C3(C)C)ccn2)C1=O (centres unmarked) [Compound 328, 5,5-dimethyl-1-((2-((1-methyl-2-oxopiperidin-3-yl)amino)pyridin-4-yl)methyl)-3-(4-((trifluoromethyl)sulfonyl)phenyl) imidazolidine-2,4-dione]
- IC50: > 10 µM

SMILES: CC1(C)C(=O)N(c2ccc(S(=O)(=O)C(F)(F)F)cc2)C(=O)N1Cc1ccnc(NC2CCN(S(C)(=O)=O)C2)c1 (centres unmarked) [Compound 329, 5,5-dimethyl-1-((2-((1-(methylsulfonyl)pyrrolidin-3-yl)amino)pyridin-4-yl)methyl)-3-(4-((trifluoromethyl)sulfonyl)phenyl) imidazolidine-2,4-dione]
- IC50: 0.5 to 2 µM

SMILES: CN1CC(Nc2cc(CN3C(=O)N(c4ccc(S(=O)(=O)C(F)(F)F)cc4)C(=O)C3(C)C)ccn2)CCC1=O (centres unmarked) [Compound 330, 5,5-dimethyl-1-((2-((1-methyl-6-oxopiperidin-3-yl)amino)pyridin-4-yl)methyl)-3-(4-((trifluoromethyl)sulfonyl)phenyl) imidazolidine-2,4-dione]
- IC50: 0.5 to 2 µM

SMILES: C[C@H](CC#N)Nc1cc(CN2C(=O)N(c3ccc(S(=O)(=O)C(F)(F)F)cc3)C(=O)C2(C)C)ccn1 [Compound 331, (R)-3-((4-((5,5-dimethyl-2,4-dioxo-3-(4-((trifluoromethyl)sulfonyl)phenyl)imidazolidin-1-yl)methyl)pyridin-2-yl)amino)butanenitrile]
- IC50: 0.5 to 2 µM

SMILES: CN1CCC(Nc2cc(CN3C(=O)N(c4ccc(S(=O)(=O)C(F)(F)F)cc4)C(=O)C3(C)C)ccn2)C1=O (centres unmarked) [Compound 332, 5,5-dimethyl-1-((2-((1-methyl-2-oxopyrrolidin-3-yl)amino)pyridin-4-yl)methyl)-3-(4-((trifluoromethyl)sulfonyl)phenyl) imidazolidine-2,4-dione]
- IC50: 2 to 10 µM

SMILES: CC1(C)C(=O)N(c2ccc(S(=O)(=O)C(F)(F)F)cc2)C(=O)N1Cc1ccnc(NC2CCNC(=O)C2)c1 (centres unmarked) [Compound 333, 5,5-dimethyl-1-((2-((2-oxopiperidin-4-yl)amino)pyridin-4-yl)methyl)-3-(4-((trifluoromethyl)sulfonyl)phenyl) imidazolidine-2,4-dione]
- IC50: 0.5 to 2 µM

SMILES: CC1(C)C(=O)N(c2ccc(S(=O)(=O)C(F)(F)F)cc2)C(=O)N1Cc1ccnc(N[C@H]2CCOC[C@@H]2F)c1 [Compound 334, 1-((2-(((3R,4S)-3-fluorotetrahydro-2H-pyran-4-yl)amino)pyridin-4-yl)methyl)-5,5-dimethyl-3-(4-((trifluoromethyl)sulfonyl)phenyl) imidazolidine-2,4-dione]
- IC50: 0.5 to 2 µM

SMILES: CC1(C)C(=O)N(c2ccc(S(=O)(=O)C(F)(F)F)cc2)C(=O)N1Cc1ccnc(N[C@@H]2[C@@H]3COC[C@@H]32)c1 [Compound 335, 1-((2-(((1R,5S,6s)-3-oxabicyclo[3.1.0]hexan-6-yl)amino)pyridin-4-yl)methyl)-5,5-dimethyl-3-(4-((trifluoromethyl)sulfonyl)phenyl) imidazolidine-2,4-dione]
- IC50: 0.5 to 2 µM

SMILES: CC(CF)Nc1cc(CN2C(=O)N(c3ccc(S(=O)(=O)C(F)(F)F)cc3)C(=O)C2(C)C)ccn1 (centres unmarked) [Compound 336, 1-((2-((1-fluoropropan-2-yl)amino)pyridin-4-yl)methyl)-5,5-dimethyl-3-(4-((trifluoromethyl)sulfonyl)phenyl) imidazolidine-2,4-dione]
- IC50: 0.5 to 2 µM

SMILES: CC1(C)C(=O)N(c2ccc(S(C)(=O)=O)cc2)C(=O)N1Cc1ccnc(N[C@H]2[C@@H]3COC[C@@H]32)c1 [Compound 337, 1-((2-(((1R,SS,6r)-3-oxabicyclo[3.1.0]hexan-6-yl)amino)pyridin-4-yl)methyl)-5,5-dimethyl-3-(4-(methylsulfonyl)phenyl) imidazolidine-2,4-dione]
- IC50: > 10 µM

— patent US20250145585A1, “HETEROCYCLIC INHIBITORS OF IGF-1R FOR TREATMENT OF DISEASE” (HORIZON THERAPEUTICS IRELAND DAC, priority 2023, published 2025)
